From patent publication US10975080B2, “Compounds and compositions for inhibiting the activity of SHP2” (NOVARTIS AG, priority 2015, dated 2021)
pIC50: −log10 of the molar value.

target: SHP2 (Homo sapiens (Human), UniProt Q06124); assay: SHP2 Allosteric Inhibition Assay; type: biochemical; settings: 0.5 nM SHP2 with 0.5 μM peptide IRS1_pY1172(dPEG8)pY1222; surrogate substrate DiFMUP; 25° C.; read-out: IC50
Text: SHP2 Allosteric Inhibition Assay
SHP2 is allosterically activated through binding of bis-tyrosyl-phosphorylated peptides to its Src Homology 2 (SH2) domains. The latter activation step leads to the release of the auto-inhibitory interface of SHP2, which in turn renders the SHP2 protein tyrosine phosphatase (PTP) active and available for substrate recognition and reaction catalysis. The catalytic activity of SHP2 was monitored using the surrogate substrate DiFMUP in a prompt fluorescence assay format.
After 30-60 minutes incubation at 25° C., the surrogate substrate DiFMUP (Invitrogen, cat #D6567) was added to the reaction and incubated at 25° C. for 30 minutes. […] The inhibitor dose response curves were analyzed using normalized IC50 regression curve fitting with control based normalization.

pIC50 | SMILES
7.59 | Cn1c(N2CCC3(CCC[C@H]3N)CC2)nc2n[nH]c(-c3cccc(Cl)c3Cl)c2c1=O [Example 2, (R)-6-(1-amino-8-azaspiro[4.5]decan-8-yl)-3-(2,3-dichlorophenyl)-5-methyl-2H-pyrazolo[3,4-d]pyrimidin-4(5H)-one]
7.21 | CC1(CN)CCN(c2nc3[nH]cc(-c4cccc(Cl)c4Cl)c3c(=O)[nH]2)CC1 [Example 3, 2-(4-(aminomethyl)-4-methylpiperidin-1-yl)-5-(2,3-dichlorophenyl)-3,7-dihydro-4H-pyrrolo[2,3-d]pyrimidin-4-one]
7.00 | Cn1c(N2CCC(C)(CN)CC2)nc2[nH]cc(-c3cccc(Cl)c3Cl)c2c1=O [Example 5, 2-(4-(aminomethyl)-4-methylpiperidin-1-yl)-5-(2,3-dichlorophenyl)-3-methyl-3H-pyrrolo[2,3-d]pyrimidin-4(7H)-one]
6.42 | C[C@@H]1OCC2(CCN(c3nc4[nH]nc(-c5cc(N)nc(Cl)c5Cl)c4c(=O)n3C)CC2)[C@@H]1N [Example 6, 3-(6-amino-2,3-dichloropyridin-4-yl)-6-((3S,4S)-4-amino-3-methyl-2-oxa-8-azaspiro[4.5]decan-8-yl)-5-methyl-1,5-dihydro-4H-pyrazolo[3,4-d]pyrimidin-4-one]
7.47 | CC(C)Nc1nccc(-c2n[nH]c3nc(N4CCC5(CC4)CO[C@@H](C)[C@H]5N)n(C)c(=O)c23)c1Cl [Example 7, 6-((3S,4S)-4-amino-3-methyl-2-oxa-8-azaspiro[4.5]decan-8-yl)-3-(3-chloro-2-(isopropylamino)pyridin-4-yl)-5-methyl-1,5-dihydro-4H-pyrazolo[3,4-d]pyrimidin-4-one]
7.44 | C[C@@H]1OCC2(CCN(c3nc4[nH]nc(-c5ccnc(N)c5Cl)c4c(=O)n3C)CC2)[C@@H]1N [Example 8, 3-(2-amino-3-chloropyridin-4-yl)-6-((3S,4S)-4-amino-3-methyl-2-oxa-8-azaspiro[4.5]decan-8-yl)-5-methyl-2,5-dihydro-4H-pyrazolo[3,4-d]pyrimidin-4-one]
7.59 | COc1nccc(-c2c[nH]c3nc(N4CCC5(CC4)CO[C@@H](C)[C@H]5N)n(C)c(=O)c23)c1Cl [Example 9, 2-((3S,4S)-4-amino-3-methyl-2-oxa-8-azaspiro[4.5]decan-8-yl)-5-(3-chloro-2-methoxypyridin-4-yl)-3-methyl-3,7-dihydro-4H-pyrrolo[2,3-d]pyrimidin-4-one]
7.59 | COc1nccc(-c2c[nH]c3nc(N4CCC5(CC4)CO[C@@H](C)[C@H]5N)[nH]c(=O)c23)c1Cl [Example 10, 2-((3S,4S)-4-amino-3-methyl-2-oxa-8-azaspiro[4.5]decan-8-yl)-5-(3-chloro-2-methoxypyridin-4-yl)-3H-pyrrolo[2,3-d]pyrimidin-4(7H)-one]
7.07 | CC1(CN)CCN(c2cc3[nH]cc(-c4cccc(Cl)c4Cl)c3c(=O)[nH]2)CC1 [Example 11, 6-(4-(aminomethyl)-4-methylpiperidin-1-yl)-3-(2,3-dichlorophenyl)-1,5-dihydro-4H-pyrrolo[3,2-c]pyridin-4-one]
7.41 | C[C@@H]1OCC2(CCN(c3cnc4c(-c5cccc(Cl)c5Cl)c[nH]c4n3)CC2)[C@@H]1N [Example 12, (3S,4S)-8-(7-(2,3-dichlorophenyl)-5H-pyrrolo[2,3-b]pyrazin-3-yl)-3-methyl-2-oxa-8-azaspiro[4.5]decan-4-amine]
7.57 | C[C@@H]1OCC2(CCN(c3nc4[nH]nc(Sc5ccnc(N)c5Cl)c4c(=O)n3C)CC2)[C@@H]1N [Example 13, 3-((2-Amino-3-chloropyridin-4-yl)thio)-6-((3S,4S)-4-amino-3-methyl-2-oxa-8-azaspiro[4.5]decan-8-yl)-5-methyl-1,5-dihydro-4H-pyrazolo[3,4-d]pyrimidin-4-one]

same assay, conditions: 0.5 nM SHP2 with 0.5 μM peptide IRS1_pY1172(dPEG8)pY1222; surrogate substrate DiFMUP; 25° C.; read-out: SHP2 IC50

SMILES | pIC50
Cn1c(N2CCC3(CCC[C@H]3N)CC2)nc2[nH]nc(-c3ccnc(N)c3Cl)c2c1=O [Example 16, (R)-3-(2-amino-3-chloropyridin-4-yl)-6-(1-amino-8-azaspiro[4.5]decan-8-yl)-5-methyl-1,5-dihydro-4H-pyrazolo[3,4-d]pyrimidin-4-one] | 6.44
Cn1c(N2CCC3(CC[C@@H]3N)CC2)nc2[nH]nc(-c3cccc(Cl)c3Cl)c2c1=O [Example 17, (S)-6-(1-amino-7-azaspiro[3.5]nonan-7-yl)-3-(2,3-dichlorophenyl)-5-methyl-1,5-dihydro-4H-pyrazolo[3,4-d]pyrimidin-4-one] | 7.36
COc1nccc(-c2n[nH]c3nc(N4CCC5(CC4)CO[C@@H](C)[C@H]5N)n(C)c(=O)c23)c1Cl [Example 18, 6-((3S,4S)-4-amino-3-methyl-2-oxa-8-azaspiro[4.5]decan-8-yl)-3-(3-chloro-2-methoxypyridin-4-yl)-5-methyl-1,5-dihydro-4H-pyrazolo[3,4-d]pyrimidin-4-one] | 7.37
Cn1c(N2CCC3(CCC[C@H]3N)CC2)nc2[nH]nc(-c3ccccc3)c2c1=O [Example 19, (R)-6-(1-amino-8-azaspiro[4.5]decan-8-yl)-5-methyl-3-phenyl-1,5-dihydro-4H-pyrazolo[3,4-d]pyrimidin-4-one] | 7.34
Cn1c(N2CCC3(CC2)COC[C@H]3N)nc2[nH]nc(-c3cccc(Cl)c3Cl)c2c1=O [Example 20, (S)-6-(4-amino-2-oxa-8-azaspiro[4.5]decan-8-yl)-3-(2,3-dichlorophenyl)-5-methyl-1,5-dihydro-4H-pyrazolo[3,4-d]pyrimidin-4-one] | 7.30

Now from value to compound:

pIC50 | SMILES
7.27 | Cn1c(N2CCC3(CC2)COC[C@H]3N)nc2[nH]nc(-c3ccnc(Cl)c3Cl)c2c1=O [Example 21, (S)-6-(4-amino-2-oxa-8-azaspiro[4.5]decan-8-yl)-3-(2,3-dichloropyridin-4-yl)-5-methyl-1,5-dihydro-4H-pyrazolo[3,4-d]pyrimidin-4-one]
7.24 | Cn1c(N2CCC3(CCC[C@H]3N)CC2)nc2[nH]nc(-c3ccnc(Cl)c3Cl)c2c1=O [Example 22, (R)-6-(1-amino-8-azaspiro[4.5]decan-8-yl)-3-(2,3-dichloropyridin-4-yl)-5-methyl-1,5-dihydro-4H-pyrazolo[3,4-d]pyrimidin-4-one]
7.19 | Cn1c(N2CCC3(CC2)COC[C@H]3N)nc2[nH]nc(-c3ccnc(N)c3Cl)c2c1=O [Example 23, (S)-3-(2-amino-3-chloropyridin-4-yl)-6-(4-amino-2-oxa-8-azaspiro[4.5]decan-8-yl)-5-methyl-1,5-dihydro-4H-pyrazolo[3,4-d]pyrimidin-4-one]
7.14 | Cn1c(N2CCC3(CCCCC3N)CC2)nc2[nH]nc(-c3cccc(Cl)c3Cl)c2c1=O (stereo not shown) [Example 24, 6-(7-amino-3-azaspiro[5.5]undecan-3-yl)-3-(2,3-dichlorophenyl)-5-methyl-1,5-dihydro-4H-pyrazolo[3,4-d]pyrimidin-4-one]
7.00 | Cn1c(N2CCC(C)(CN)CC2)nc2[nH]nc(-c3ccnc(Cl)c3Cl)c2c1=O [Example 25, 6-(4-(aminomethyl)-4-methylpiperidin-1-yl)-3-(2,3-dichloropyridin-4-yl)-5-methyl-1,5-dihydro-4H-pyrazolo[3,4-d]pyrimidin-4-one]
6.90 | Cn1c(N2CCC(C)(CN)CC2)nc2[nH]nc(-c3cccc(C(F)(F)F)c3Cl)c2c1=O [Example 26, 6-(4-(aminomethyl)-4-methylpiperidin-1-yl)-3-(2-chloro-3-(trifluoromethyl)phenyl)-5-methyl-1,5-dihydro-4H-pyrazolo[3,4-d]pyrimidin-4-one]
6.35 | C[C@@H]1OCC2(CCN(c3nc4[nH]nc(-c5c(F)ccc(Cl)c5Cl)c4c(=O)n3C)CC2)[C@@H]1N [Example 27, 6-((3S,4S)-4-amino-3-methyl-2-oxa-8-azaspiro[4.5]decan-8-yl)-3-(2,3-dichloro-6-fluorophenyl)-5-methyl-1,5-dihydro-4H-pyrazolo[3,4-d]pyrimidin-4-one]
6.51 | Cn1c(N2CCC(C)(CN)CC2)nc2[nH]nc(-c3ccncc3Cl)c2c1=O [Example 28, 6-(4-(aminomethyl)-4-methylpiperidin-1-yl)-3-(3-chloropyridin-4-yl)-5-methyl-1,5-dihydro-4H-pyrazolo[3,4-d]pyrimidin-4-one]
7.46 | C[C@@H]1OCC2(CCN(c3nc4[nH]nc(-c5ccnc(NC6CCC6)c5Cl)c4c(=O)n3C)CC2)[C@@H]1N [Example 29, 6-((3S,4S)-4-amino-3-methyl-2-oxa-8-azaspiro[4.5]decan-8-yl)-3-(3-chloro-2-(cyclobutylamino)pyridin-4-yl)-5-methyl-1,5-dihydro-4H-pyrazolo[3,4-d]pyrimidin-4-one]
6.99 | C[C@@H]1OCC2(CCN(c3nc4[nH]nc(-c5ccnc(N6CCOCC6)c5Cl)c4c(=O)n3C)CC2)[C@@H]1N [Example 30, 6-((3S,4S)-4-amino-3-methyl-2-oxa-8-azaspiro[4.5]decan-8-yl)-3-(3-chloro-2-morpholinopyridin-4-yl)-5-methyl-1,5-dihydro-4H-pyrazolo[3,4-d]pyrimidin-4-one]
7.92 | C[C@@H]1OCC2(CCN(c3nc4[nH]nc(-c5ccnc(N6CCCC6)c5Cl)c4c(=O)n3C)CC2)[C@@H]1N [Example 31, 6-((3S,4S)-4-amino-3-methyl-2-oxa-8-azaspiro[4.5]decan-8-yl)-3-(3-chloro-2-(pyrrolidin-1-yl)pyridin-4-yl)-5-methyl-1,5-dihydro-4H-pyrazolo[3,4-d]pyrimidin-4-one]
7.27 | CNc1nccc(-c2n[nH]c3nc(N4CCC5(CC4)CO[C@@H](C)[C@H]5N)n(C)c(=O)c23)c1Cl [Example 32, 6-((3S,4S)-4-amino-3-methyl-2-oxa-8-azaspiro[4.5]decan-8-yl)-3-(3-chloro-2-(methylamino)pyridin-4-yl)-5-methyl-1,5-dihydro-4H-pyrazolo[3,4-d]pyrimidin-4-one]
